Measurements taken from US20100240657A1, “CHEMICAL COMPOUNDS” (BOEHRINGER INGELHEIM INTERNATIONAL GMBH, priority 2007, published 2010).

Tests used:
[1] = tested on: A375 cells; test: Inhibition of proliferation on cultivated human melanoma cells (A375), AlamarBlue; format: cell-based; conditions: A-375, A375, method as for SK-MEL28, read-out: EC50 value, cellular A375 assay
Description: (§1) To measure proliferation on cultivated human tumour cells, cells of melanoma cell line SK-MEL28 [American Type Culture Collection (ATCC)] are cultivated in MEM medium, supplemented with 10% foetal calf serum, 2% sodium bicarbonate, 1 mM sodium pyruvate, 1% non-essential amino acids (e.g. from Cambrex, #BE13-114E) and 2 mM glutamine. SK-MEL28 cells are placed in 96-well flat-bottomed plates at a density of 2500 cells per well in supplemented MEM medium (see above) and incubated overnight in an incubator (at 37° C. and 5% CO2). The active substances are added to the cells in various concentrations so as to cover a range of concentrations from 50 μM to 3.2 nM. If necessary the initial concentration is changed from 50 μM to 10 μM or 2 μM and further dilution (to 0.6 nM or 0.12 nM) is carried out accordingly. After a further 72 hours incubation, 20 μl AlamarBlue reagent (Serotec Ltd., #BUF012B) is added to each well, and the cells are incubated for a further 3-6 hours. The colour change of the AlamarBlue reagent is determined in a fluorescence spectrophotometer (e.g. Gemini, Molecular Devices). EC50 values are calculated using the software programme (GraphPadPrizm).
To measure proliferation on cultivated human tumour cells, cells of melanoma cell line A375 [American Type Culture Collection (ATCC)] are cultivated in MEM medium, supplemented with 10% foetal calf serum and 2% sodium bicarbonate. Test substances are tested on A375 cells according to the method described for SK-MEL28 cells (see above).

[2] = tested on: SK-MEL28 cells; test: Inhibition of proliferation on cultivated human melanoma cells (SK-MEL28), AlamarBlue; format: cell-based; conditions: SK-MEL-28, SK-MEL28, 72 hours incubation, read-out: EC50 value, cellular SK-MEL28 assay
Description: as §1

[3] = molecular target: B-Raf (V600E) (Homo sapiens, UniProt P15056, V600E); test: Kinase test B-Raf (V600E); format: biochemical; conditions: 250 μM ATP, MEK1 substrate; read-out: IC50 value, B-Raf (V600E) inhibition test
Chain of B-Raf (V600E) (P15056 whole entry V600E): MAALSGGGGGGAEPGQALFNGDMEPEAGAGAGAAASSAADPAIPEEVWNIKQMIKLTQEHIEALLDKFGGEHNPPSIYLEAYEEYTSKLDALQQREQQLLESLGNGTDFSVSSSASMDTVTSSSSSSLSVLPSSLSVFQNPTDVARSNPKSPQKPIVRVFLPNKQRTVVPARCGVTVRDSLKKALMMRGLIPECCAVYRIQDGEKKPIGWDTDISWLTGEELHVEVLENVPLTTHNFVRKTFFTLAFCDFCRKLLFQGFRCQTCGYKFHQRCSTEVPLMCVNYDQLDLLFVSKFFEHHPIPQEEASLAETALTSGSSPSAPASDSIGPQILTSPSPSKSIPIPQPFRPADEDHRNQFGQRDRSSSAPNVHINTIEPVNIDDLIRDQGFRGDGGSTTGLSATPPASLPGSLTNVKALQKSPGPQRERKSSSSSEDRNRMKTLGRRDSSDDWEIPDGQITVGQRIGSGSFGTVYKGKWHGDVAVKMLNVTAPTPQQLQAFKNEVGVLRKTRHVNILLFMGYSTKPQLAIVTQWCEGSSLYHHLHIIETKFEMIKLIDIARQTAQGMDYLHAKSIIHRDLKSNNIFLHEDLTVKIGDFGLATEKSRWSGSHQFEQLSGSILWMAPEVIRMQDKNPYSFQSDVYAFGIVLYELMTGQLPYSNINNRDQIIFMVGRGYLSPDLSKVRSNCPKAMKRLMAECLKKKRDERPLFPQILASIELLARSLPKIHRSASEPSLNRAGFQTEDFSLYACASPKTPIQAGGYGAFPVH
Description: In a dilution series, 10 μL aliquots of test substance solution are placed in a multiwell plate. The dilution series is selected so as to cover a range of concentrations from 2 μM to 0.128 or 0.017 nM. If necessary the initial concentration is changed from 2 μM to 10 or 0.4 μM and further dilution is carried out accordingly. The final concentration of DMSO is 5%. 10 μL of the B-Raf (V600E) kinase solution are pipetted in (containing 2.5 ng B-Raf (V600E)-kinase in 20 mM TrisHCl pH 7.5, 0.1 mM EDTA, 0.1 mM EGTA, 0.286 mM sodium orthovanadate, 10% glycerol, 1 mg/mL bovine serum albumin, 1 mM dithiothreitol) and incubated for 1 h at RT with agitation. The kinase reaction is started by the addition of 20 μL ATP solution [final concentration: 250 μM ATP, 30 mM Tris-HCl pH 7.5, 0.02% Brij, 0.2 mM sodium-orthovanadate, 10 mM magnesium acetate, phosphatase cocktail (Sigma, #P2850, dilution recommended by the manufacturer), 0.1 mM EGTA] and 10 μL MEK1 solution [containing 50 ng biotinylated MEK1 (prepared from purified MEK1 according to standard procedure, e.g. with reagent EZ-Link Sulfo-NHS-LC-Biotin, Pierce, #21335) in 50 mM Hepes pH 7.5, 150 mM NaCl, 10% glycerol, 0.02% Brij-35, 0.2 mM PMSF, 0.2 mM benzamidine] and carried out for 60 min at RT with constant agitation. The reaction is stopped by the addition of 12 μL of a 100 mM EDTA solution and incubated for a further 5 min. 55 μL of the reaction solution are transferred into a streptavidine-coated plate (e.g. Streptawell HighBond, Roche, #11989685001) and shaken gently for 1 h at RT, in order to bind biotinylated MEK1 to the plate. After removal of the liquid the plate is washed five times with 200 μL of 1×PBS, and 100 μL solution of primary antibody plus europium-labelled secondary antibody [Anti Phospho-MEK (Ser217/221), Cell Signaling #9121 and Eu-N1 labeled goat-anti-rabbit antibody, Perkin Elmer #AD01015], the primary antibody is diluted 1:2000 and the secondary antibody is added to 0.4-0.5 μg/mL diluted in Delfia Assay Buffer (Perkin Elmer, #1244-111). After 1 h agitation at RT the solution is poured away and washed five times with 200 μL Delfia Wash Buffer (Perkin Elmer #4010-00101244-114). After the addition of 200 μL Enhancement Solution (Perkin Elmer #4001-00101244-105) the preparation is shaken for 10 min at RT and then measured in a Wallac Victor using the programme “Delfia Time Resolved Fluorescence (Europium)”.
IC50 values are determined from these dosage-activity curves using the software programme (GraphPadPrizm).

Row | EC50 [1] [µM] | EC50 [2] [µM] | IC50 [3] [µM] | Structure (SMILES)
1 | < 5 | < 5 | < 0.5 | COc1c(NC(=O)c2ccc(C)c(-c3nc(-c4cccnc4)no3)c2)cc(C(C)(C)C)cc1NS(C)(=O)=O [Example 3a]
2 | < 5 | < 5 | < 0.5 | Cc1ccc(C(=O)Nc2cc(C(C)(C)C)n[nH]2)cc1-c1csc(-c2cccnc2)n1 [Example 5b-a]
3 | – | – | < 0.5 | Cc1ccc(C(=O)Nc2ccc(Cl)c(C(F)(F)F)c2)cc1-c1csc(-c2cccnc2)n1 [Example 5b-b]
4 | < 5 | < 5 | – | Cc1ccc(C(=O)Nc2cc(C(C)(C)C)on2)cc1-c1c[nH]c(-c2cccnc2)n1 [Example 6c]

Second part, the compound before the results:

Row | Structure (SMILES) | EC50 [1] [µM] | EC50 [2] [µM] | IC50 [3] [µM]
5 | COC(=O)c1cncc(-n2cc(-c3cc(C(=O)Nc4cc(C(C)(C)C)cc(NS(C)(=O)=O)c4OC)ccc3C)nn2)c1 [Example 1a] | < 5 | < 5 | –
6 | COc1c(NC(=O)c2ccc(C)c(-c3noc(-c4cccnc4)n3)c2)cc(C(C)(C)C)cc1NS(C)(=O)=O [Example 2a] | < 5 | – | < 0.5
7 | Cc1ccc(C(=O)Nc2ccc(Cl)c(C(F)(F)F)c2)cc1-c1noc(-c2cccnc2)n1 [Example 2b] | < 5 | – | < 0.5
